Results as given in patent US11872216B2, “Pharmaceutical formulation comprising cineole and amoxicillin” (priority 2016, dated 2024).
Values belong to the compound of their own block, whether it stands above or below them.

Tests used:
Assay type in all cases: cell-based
[1] = system: BSBL Klebsiella pneumoniae H2001; test: Microplate microdilution growth inhibition (PIC, MIC, FIC-index)
Method: (§1) The six strains tested in this study are purified clinical isolates identified in the bacteriology laboratory of the Hassan II university teaching hospital center (CHU, Fes, Morocco). Three of the six bacterial strains tested are strains of BSBL Escherichia coli (P956, P933 and P7847) and the other three bacterial strains tested are strains of BSBL Klebsiella pneumoniae (H1878, H2001 and H1893).
(§2) For each test performed, precultures of the bacterial strains (frozen beforehand at −20° C.) for 24 h at 37° C. were prepared. From these precultures, bacterial inocula containing 2×10^7 CFU (colony-forming units)/ml were prepared, adjusting the optical density to 540 nm.
(§3) Amoxicillin (AMX) and cineole were supplied by Sigma Aldrich (France). A stock solution of AMX (400 μg/ml) was prepared after dissolving 40 mg of antibiotic in 100 ml of sterile distilled water. From this stock solution, serial dilutions were performed. The cineole concentrations used were prepared by emulsifying pure cineole in 0.2% (v/v) of agar-agar according to the method described by Remmal A et al. (J. Essent. Oil. Res [Book], 1993, 5: pages 1179-1184).
(§4) The partial inhibitory concentrations (PIC) are the concentrations of antibacterial agents which inhibit the growth of a given percentage (90%, 75%, 50%, 40% . . . ) of the bacterial population studied. The PICs of AMX and cineole with respect to the six bacterial strains used were determined via a microplate microdilution technique based on the monitoring of the bacterial growth by measuring the optical density (Casey J. T. et al., J. Microbiol. Meth [Book], 2004, 58: pages 327-334; Patton T et al., J. Microbiol. Meth [Book], 2006, 64: pages 84-95).
(§5) 96-well U-shaped sterile microplates with a capacity of 200 μl were used. For each microplate, two control rows were prepared: • A row containing 200 μl of the MH liquid medium (sterility control and negative control). • A row containing 150 μl of the MH liquid medium and 50 μl of the bacterial inoculum at 2×10^7 CFU/ml (positive control).
(§6) For AMX and cineole, two rows were prepared containing 100 μl of MH liquid medium, 50 μl of the bacteria inoculum at 2×10^7 CFU/ml and 50 μl of decreasing concentrations of antimicrobial agents. The AMX concentrations used are: 50-25-12.5-6.25-3.1-1.6-0.8-0.4-0.20-0.10-0.05-0.025 μg/ml. The cineole concentrations used are: 100-50-25-12.5-6.25-3.1-1.6-0.8-0.4-0.20-0.10-0.05 μl/ml. The optical densities (OD) were determined at 540 nm using a microplate spectrophotometer (Versamax, Molecular Devices, USA). The OD was measured at time t=0 and after 22 hours of incubation at 30° C. The percentage of inhibition of the antimicrobial agents with respect to each of the six strains was calculated according to Casey J. T. et al. (J. Microbiol. Meth. [Book], 2004, 58: pages 327-334) according to the following formula:
(§7) With ODT0=OD of the test well at time t=0, ODT22=OD of the test well after 22 h of incubation, ODC0=OD of the positive control well at time t=0, ODC22=OD of the positive control well after 22 h of incubation.
(§8) After having determined the PICs of AMX and cineole alone, the antibacterial power of the combination of AMX and cineole was evaluated. The same technique of microplate microdilution was used. The AMX-cineole combinations were prepared in sterile tubes as follows: • AMX 50% PIC+cineole 40% PIC • AMX 50% PIC+cineole 30% PIC • AMX 50% PIC+cineole 20% PIC • AMX 25% PIC+cineole 40% PIC • AMX 25% PIC+cineole 30% PIC • AMX 25% PIC+cineole 20% PIC.
(§9) The fractional inhibitory concentration index (FIC-index) expressing the degree of synergism of the AMX-cineole combination was calculated according to the following formula (Odds F. C. et al., J. Antimicrob. Chemoth. [Book], 2003, 52: page 1).
(§10) The AMX-cineole combination is considered: • Synergistic when the FIC-index is ≤0.5 • Additive when 0.5<FIC-index <1 • Indifferent when 1<FIC-index <2 • Antagonistic when FIC-index >2. Results

[2] = system: BSBL Escherichia coli P933; test: as above
Method: as §1, §2, §3, §4, §5, §6, §7, §8, §9, §10

[3] = system: BSBL Klebsiella pneumoniae H1893; test: as above
Method: as §1, §2, §3, §4, §5, §6, §7, §8, §9, §10

[4] = system: BSBL Escherichia coli P956; test: as above
Method: as §1, §2, §3, §4, §5, §6, §7, §8, §9, §10

[5] = system: BSBL Escherichia coli P7847; test: as above
Method: as §1, §2, §3, §4, §5, §6, §7, §8, §9, §10

[6] = system: BSBL Klebsiella pneumoniae H1878; test: as above
Method: as §1, §2, §3, §4, §5, §6, §7, §8, §9, §10

[7] = system: three strains of BSBL Escherichia coli and three strains of BSBL Klebsiella pneumoniae; test: Microplate microdilution, statements over all six strains tested
Method: as §1, §2, §3, §4
96-well U-shaped sterile microplates with a capacity of 200 μl were used. […]
as §6, with “The AMX concentrations used are: 50-25-12.5-6.25-3.1-1.6-0.8-0.4-0.20-0.10-0.05-0.025 μg/ml. The cineole concentrations used are: 100-50-25-12.5-6.25-3.1-1.6-0.8-0.4-0.20-0.10-0.05 μl/ml.” left out, “formula: […]” for “formula:”
After having determined the PICs of AMX and cineole alone, the antibacterial power of the combination of AMX and cineole was evaluated. […]
The fractional inhibitory concentration index (FIC-index) expressing the degree of synergism of the AMX-cineole combination was calculated according to the following formula (Odds F. C. et al., J. Antimicrob. Chemoth. [Book], 2003, 52: page 1). […]

[8] = cineole alone, Klebsiella pneumoniae H2001
[9] = cineole alone, Escherichia coli P933
[10] = cineole alone, Klebsiella pneumoniae H1893
[11] = cineole alone, Escherichia coli P956
[12] = cineole alone, Escherichia coli P7847
[13] = cineole alone, Klebsiella pneumoniae H1878

MIC ([1]; Klebsiella pneumoniae, K. pneumoniae 112001, read-out: 100% MIC Alone (amoxicillin, first figure of the cell)): 50 µg/mL
IC50 ([1]; amoxicillin alone, Klebsiella pneumoniae H2001, read-out: 50% PIC): 1.3 ± 0.12 µg/mL
MIC ([2]; Escherichia coli, E. coli P933, read-out: 100% MIC Alone (amoxicillin, first figure of the cell)): 50 µg/mL
MIC ([3]; Klebsiella pneumoniae, K. pneumoniae 111893, read-out: 100% MIC Alone (amoxicillin, first figure of the cell)): 50 µg/mL
IC50 ([3]; amoxicillin alone, Klebsiella pneumoniae H1893, read-out: 50% PIC): 1.7 ± 0.09 µg/mL
MIC ([4]; Escherichia coli, E. coli P956, read-out: 100% MIC Alone (amoxicillin, first figure of the cell)): 50 µg/mL
MIC ([5]; Escherichia coli, E. coli P7847, read-out: 100% MIC Alone (amoxicillin, first figure of the cell)): 50 µg/mL
MIC ([6]; Klebsiella pneumoniae, K. pneumoniae 111878, read-out: 100% MIC Alone (amoxicillin, first figure of the cell)): 50 µg/mL
IC50 ([6]; amoxicillin alone, Klebsiella pneumoniae H1878, read-out: 50% PIC): 1.6 ± 0.17 µg/mL
IC50 ([7]; span over all strains tested, read-out: 50% PIC of AMX): 1.1 to 1.7 µg/mL
MIC ([7]; three strains of E. coli and three strains of K. pneumoniae, read-out: minimum inhibitory concentrations (MIC, 100% inhibition) of AMX): ~50 µg/mL
Structure (SMILES): CC1(C)S[C@@H]2[C@H](NC(=O)[C@H](N)c3ccc(O)cc3)C(=O)N2[C@H]1C(=O)O [amoxicillin, Amoxicillin]
25% PIC ([1]; amoxicillin alone, Klebsiella pneumoniae H2001): 0.6 ± 0.14 µg/mL
25% PIC ([2]; amoxicillin alone, Escherichia coli P933): 0.5 ± 0.10 µg/mL
IC50 ([2]; amoxicillin alone, Escherichia coli P933, read-out: 50% PIC): 1.3 ± 0.24 µg/mL
25% PIC ([3]; amoxicillin alone, Klebsiella pneumoniae H1893): 0.8 ± 0.12 µg/mL
25% PIC ([4]; amoxicillin alone, Escherichia coli P956): 0.7 ± 0.14 µg/mL
IC50 ([4]; amoxicillin alone, Escherichia coli P956, read-out: 50% PIC): 1.1 ± 0.25 µg/mL
25% PIC ([5]; amoxicillin alone, Escherichia coli P7847): 0.8 ± 0.17 µg/mL
IC50 ([5]; amoxicillin alone, Escherichia coli P7847, read-out: 50% PIC): 1.5 ± 0.13 µg/mL
25% PIC ([6]; amoxicillin alone, Klebsiella pneumoniae H1878): 0.9 ± 0.09 µg/mL

100% MIC Alone (cineole, second figure of the cell) ([1]; K. pneumoniae 112001): 100 μl/ml
100% MIC Alone (cineole, second figure of the cell) ([2]; E. coli P933): 100 μl/ml
100% MIC Alone (cineole, second figure of the cell) ([3]; K. pneumoniae 111893): 100 μl/ml
100% MIC Alone (cineole, second figure of the cell) ([4]; E. coli P956): 100 μl/ml
100% MIC Alone (cineole, second figure of the cell) ([5]; E. coli P7847): 100 μl/ml
100% MIC Alone (cineole, second figure of the cell) ([6]; K. pneumoniae 111878): 100 μl/ml
MICs of cineole ([7]; three strains of E. coli and three strains of K. pneumoniae): ~100 μl/ml
Structure (SMILES): CC12CCC(CC1)C(C)(C)O2 [cineole, 1,8-cineole]
20% PIC [1, 8]: 0.7 ± 0.09 μl/ml
30% PIC [1, 8]: 3.1 ± 0.10 μl/ml
40% PIC [1, 8]: 6.9 ± 0.12 μl/ml
20% PIC [2, 9]: 1.3 ± 0.24 μl/ml
30% PIC [2, 9]: 2.3 ± 0.09 μl/ml
40% PIC [2, 9]: 6.8 ± 0.14 μl/ml
20% PIC [3, 10]: 0.6 ± 0.12 μl/ml
30% PIC [3, 10]: 2.7 ± 0.09 μl/ml
40% PIC [3, 10]: 6.8 ± 0.09 μl/ml
20% PIC [4, 11]: 1.2 ± 0.16 μl/ml
30% PIC [4, 11]: 2.6 ± 0.12 μl/ml
40% PIC [4, 11]: 6.2 ± 0.20 μl/ml
20% PIC [5, 12]: 1.2 ± 0.11 μl/ml
30% PIC [5, 12]: 2.7 ± 0.12 μl/ml
40% PIC [5, 12]: 6.5 ± 0.10 μl/ml
20% PIC [6, 13]: 0.4 ± 0.12 μl/ml
30% PIC [6, 13]: 2.9 ± 0.12 μl/ml
40% PIC [6, 13]: 7.1 ± 0.12 μl/ml
40% PIC of cineole ([7]; span over all strains tested): 6.2-7.1 μl/ml
